Test results as given in US20010039287A1, “AROMATIC SULFONE HYDROXAMIC ACID METALLOPROTEASE INHIBITOR” (priority 1997, published 2001).
Structures can show the parent of a compound that is named as a salt. Where two headings read alike, the source gives them in different places.

Assays:
[1] = biological target: recombinant human MMP-13 (Homo sapiens, UniProt P45452); test: biochemical
[2] = biological target: T1, recombinant human MMP-1 (Homo sapiens, UniProt P03956); test: biochemical
T1 construct: made in house; host or cells: transfected HT-1080 cells (provided by Dr. Harold Welgus, Washington University)
T1 sequence (P03956 100-469): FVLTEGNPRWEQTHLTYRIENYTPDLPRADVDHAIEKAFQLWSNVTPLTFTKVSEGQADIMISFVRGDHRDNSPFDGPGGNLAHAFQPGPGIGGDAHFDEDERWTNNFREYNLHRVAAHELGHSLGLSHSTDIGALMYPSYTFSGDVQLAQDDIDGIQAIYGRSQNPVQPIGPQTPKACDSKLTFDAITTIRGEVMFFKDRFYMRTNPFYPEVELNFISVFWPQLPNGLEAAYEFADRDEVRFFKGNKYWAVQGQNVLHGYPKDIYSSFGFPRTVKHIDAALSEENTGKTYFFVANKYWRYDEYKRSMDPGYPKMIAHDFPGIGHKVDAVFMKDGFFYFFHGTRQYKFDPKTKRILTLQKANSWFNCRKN

[3] = biological target: T2, recombinant human MMP-2 (Homo sapiens, UniProt P08253); test: biochemical
T2 sequence (P08253 110-660): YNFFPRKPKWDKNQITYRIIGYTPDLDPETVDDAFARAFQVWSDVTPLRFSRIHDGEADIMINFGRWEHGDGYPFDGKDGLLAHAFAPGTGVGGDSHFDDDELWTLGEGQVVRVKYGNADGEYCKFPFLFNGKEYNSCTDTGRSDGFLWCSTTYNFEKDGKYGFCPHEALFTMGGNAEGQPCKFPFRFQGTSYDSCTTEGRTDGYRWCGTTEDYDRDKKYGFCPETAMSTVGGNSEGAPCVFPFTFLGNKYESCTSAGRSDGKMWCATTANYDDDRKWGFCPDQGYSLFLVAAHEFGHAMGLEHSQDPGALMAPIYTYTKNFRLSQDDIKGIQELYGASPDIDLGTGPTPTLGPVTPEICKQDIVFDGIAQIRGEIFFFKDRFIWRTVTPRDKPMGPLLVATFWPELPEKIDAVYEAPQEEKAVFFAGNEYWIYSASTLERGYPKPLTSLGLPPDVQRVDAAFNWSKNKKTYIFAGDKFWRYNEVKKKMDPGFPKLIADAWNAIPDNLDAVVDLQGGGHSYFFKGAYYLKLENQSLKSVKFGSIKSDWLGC

[4] = biological target: recombinant human MMP-9 (Homo sapiens, UniProt P14780); test: biochemical
[5] = tested on: TNFα; test: Tumor necrosis factor assay: TNFα ELISA on PMA-stimulated U-937 cell supernatant; conditions: Homo sapiens, U-937, read-out: TNFα Release IC50 in micromolar
[6] = parameters: AUC (0-∞): unit not given beside the values; conditions: for t½ Hour: Rat Intravenous 20 mpk
[7] = Inhibition Table A, read-out: MMP-13 IC50
[8] = Inhibition Table A, read-out: MMP-1 IC50
[9] = Inhibition Table A, read-out: MMP-2 IC50
[10] = Inhibition Table A, read-out: MMP-9 IC50
[11] = Inhibition Table B, read-out: MMP-13 IC50
[12] = Inhibition Table B, read-out: MMP-2 IC50
[13] = Inhibition Table B, read-out: MMP-9 IC50
[14] = Inhibition Table B, read-out: MMP-1 IC50

recombinant human MMP-9, sequence (P14780 107-707 limits assumed): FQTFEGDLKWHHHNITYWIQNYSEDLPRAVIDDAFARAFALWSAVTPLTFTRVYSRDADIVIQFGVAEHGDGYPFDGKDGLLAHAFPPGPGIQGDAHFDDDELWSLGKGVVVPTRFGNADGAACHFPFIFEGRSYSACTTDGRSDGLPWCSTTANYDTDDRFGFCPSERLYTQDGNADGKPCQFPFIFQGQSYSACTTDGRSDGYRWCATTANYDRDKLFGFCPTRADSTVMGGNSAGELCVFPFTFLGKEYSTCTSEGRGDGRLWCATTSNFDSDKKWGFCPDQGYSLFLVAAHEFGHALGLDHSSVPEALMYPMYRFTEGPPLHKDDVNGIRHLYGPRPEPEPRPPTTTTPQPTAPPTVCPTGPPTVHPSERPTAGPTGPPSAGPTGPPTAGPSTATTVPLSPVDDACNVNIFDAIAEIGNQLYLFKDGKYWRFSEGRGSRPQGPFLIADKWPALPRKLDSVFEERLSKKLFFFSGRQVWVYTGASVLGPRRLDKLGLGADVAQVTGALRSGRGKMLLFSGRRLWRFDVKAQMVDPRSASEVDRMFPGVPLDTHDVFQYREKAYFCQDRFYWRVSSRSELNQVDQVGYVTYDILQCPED

SMILES | IC50 [1, 11] [nM] | IC50 [3, 12] [nM] | IC50 [4, 13] [nM] | t½ Hour [6] [min] | IC50 [2, 14] [nM] | other results
O=C(NO)C1(S(=O)(=O)c2ccc(Oc3ccccc3)cc2)CCNCC1 [Example 4] |  |  |  |  |  | IC50 [1, 7]: 0.35 nM; IC50 [2, 8]: 1090 nM; IC50 [3, 9]: 0.23 nM; IC50 [4, 10]: 5 nM; IC50 [5]: > 50 µM
C#CCN1CCC(C(=O)NO)(S(=O)(=O)c2ccc(Oc3ccccc3)cc2)CC1 [Example 6] |  |  |  |  |  | IC50 [1, 7]: 0.25 nM; IC50 [2, 8]: 327 nM; IC50 [3, 9]: 0.15 nM; IC50 [5]: > 50 µM
C#CCN1CCC(C(=O)NO)(S(=O)(=O)c2ccc(Sc3ccccc3)cc2)CC1 [Example 9] |  |  |  |  |  | IC50 [2, 8]: 9000 nM; IC50 [3, 9]: 0.2 nM; IC50 [5]: > 50 µM
C#CCN1CCC(C(=O)NO)(S(=O)(=O)c2ccc(Oc3ccc4c(c3)OCO4)cc2)CC1 [Example 10] |  |  |  |  |  | IC50 [1, 7]: 0.4 nM; IC50 [2, 8]: 1600 nM; IC50 [5]: > 50 µM
C#CCN1CCC(C(=O)NO)(S(=O)(=O)c2ccc(SC3CCCCC3)cc2)CC1 [Example 13] |  |  |  |  |  | IC50 [1, 7]: 0.6 nM; IC50 [3, 9]: 0.4 nM; IC50 [5]: > 50 µM
O=C(NO)C1(S(=O)(=O)c2ccc(Sc3ccc(F)cc3)cc2)CCN(C2CC2)CC1 [Example 27] |  |  |  |  |  | IC50 [1, 7]: 0.45 nM; IC50 [2, 8]: > 10000 nM; IC50 [3, 9]: 0.4 nM; IC50 [4, 10]: 4 nM; IC50 [5]: > 80 µM
Cl.O=C(NO)C1(S(=O)(=O)c2ccc(Sc3ccccc3)cc2)CCN(C2CC2)CC1 [Example 32, 1-cyclopropyl-N-hydroxy-4-[[4-(phenylthio)phenyl]sulfonyl]-4-piperidine Carboxamide, Monohydrochloride] | 0.2 | 0.1 | 2.5 | 61.8 |  | IC50 [2]: > 10000 nM
CN1CCC(C(=O)NO)(S(=O)(=O)c2ccc(Sc3ccccc3)cc2)CC1.Cl [Example 33, N-hydroxy-1-methyl-4-[[4-(phenylthio)phenyl]sulfonyl]-4-piperidinecarboxamide, Monohydrochloride] | 0.8 | 0.5 | 9.4 | 115 |  | IC50 [2]: > 10000 nM
COCCN1CCC(C(=O)NO)(S(=O)(=O)c2ccc(Sc3ccccc3)cc2)CC1 [Example 35, N—hydroxy-1-(2-methoxyethyl)-4-[[4-(phenylthio)phenyl]-sulfonyl]-4-piperidinecarboxamide, Monohydrochloride] | 0.5 | 0.3 | 3 |  | > 10000 | IC50 [5]: > 80 µM
CC(=O)N1CCC(C(=O)NO)(S(=O)(=O)c2ccc(Sc3ccccc3)cc2)CC1.Cl [Example 36, 1-acetyl-N-hydroxy-4-[[4-(phenylthio)phenyl]sulfonyl]-4-piperidinecarboxamide, Monohydrochloride] | 0.6 | 0.4 | 8 | 39 | 7300 | 
C#CCN1CCC(C(=O)NO)(S(=O)(=O)c2ccc(Oc3ccc(C)c(C)c3)cc2)CC1.Cl [Example 43, 4-[[4-(3,4-Dimethylphenoxyl)phenyl]sulfonyl]-N-hydroxy-1-(2-propynyl)-4-piperidinecarboxamide, Monhydrochloride] | 0.8 | 0.4 |  | 49.2 | 7000 | 
Cl.O=C(NO)C1(S(=O)(=O)c2ccc(Oc3ccc(-n4cncn4)cc3)cc2)CCS(=O)(=O)CC1 [Example 53, Tetrahydro-N-hydroxy-4-[[4-[4-(1H-1,2,4-triazol-1-yl)phenoxy]-phenyl]-sulfonyl]-2H-thiopyran-4-carboxamide 1,1-dioxide, Monohydrochloride] | 1.5 | 0.3 | 92 | 58.2 | > 10000 | 
O=C(NO)C1(S(=O)(=O)c2ccc(Sc3ccc(OC(F)(F)F)cc3)cc2)CCOCC1 [Example 73, tetrahydro-N-hydroxy-4-[[4-[4-(trifluoromethoxy)phenylthio]-phenyl]-sulfonyl]-2H-pyran-4-carboxamide] |  |  | 0.2 |  | 1140 | IC50 [1]: < 0.1 nM; IC50 ([3]; MMP-2 IC50 (nM)): < 0.1 nM; Blood Level @ 6 hr ([6]; rat, in vivo, po, 20 mg/kg): 0.372 µg/mL
C#CCN1CCC(C(=O)NO)(S(=O)(=O)c2ccc(Oc3ccc(Cl)c(C)c3)cc2)CC1.Cl [Example 81, 4-[[4-(4-chloro-3-methylphenoxy)phenyl]sulfonyl]-N-hydroxy-1-(2-propynyl)-4-piperidinecarboxamide, Monohydrochloride] | 0.3 | 0.1 |  | 45.6 | 3300 | 
Cl.O=C(NO)C1(S(=O)(=O)c2ccc(Oc3ccc(Cl)cc3)cc2)CCNCC1 [Example 93, 4-[[4-(4-chlorophenoxy)-phenyl]sulfonyl]-N-hydroxy-4-piperidinecarboxamide, Monohydrochloride] | 0.7 | 0.4 | 3.5 | 109 | 8000 | 
Cl.O=C(NO)C1(S(=O)(=O)c2ccc(Oc3ccc(-n4ccnc4)cc3)cc2)CCOCC1 [Example 99, tetrahydro-N-hydroxy-4-[[4-[4-(1H-imidazol-1-yl)phenoxy]phenyl]-sulfonyl]-2H-pyran-4-carboxamide, Monohydrochloride] | 1 | 0.4 |  | 40.8 | > 10000 | 
O=C(NO)C1(S(=O)(=O)c2ccc(Sc3ccc(F)cc3)cc2)CCOCC1 [Example 103, 4-[[4-[(4-fluorophenyl)-thio]phenyl]sulfonyl]tetrahydro-N-hydroxy-2H-pyran-4-carboxamide] | 0.7 | 0.8 | 10 | 66 | > 10000 | 
Cl.O=C(NO)C1(S(=O)(=O)c2ccc(Sc3ccncc3)cc2)CCOCC1 [Example 104, Tetrahydro-N-hydroxy-4-[[4-(4-pyridinylthio)phenyl]sulfonyl]-2H-pyran-4-carboxamide, Monohydrochloride] | 0.65 | 1.5 | 42.8 | 39.6 | > 10000 | 
O=C(NO)C1(S(=O)(=O)c2ccc(Oc3ccccc3)cc2)CCSCC1 [Example 109] | 0.3 | 0.1 | 0.7 | 67.2 | 500 | 
O=C(NO)C1(S(=O)(=O)c2ccc(Oc3ccccc3)cc2)CC[S+]([O-])CC1 (stereo not drawn) [Example 111] | 1.3 | 0.5 |  | 39 | 3700 | 
O=C(O)CNc1ccc(Oc2ccc(S(=O)(=O)C3(C(=O)NO)CCSCC3)cc2)cc1 [Example 117, tetrahydro-N-hydroxy-4-[[4-[4-hydroxyphenyl Glycine)]phenyl] Sulfonyl 2H-thiopyran-4-carboxamide] | 4.8 | 0.6 | 45.4 | 46.8 | 3700 | 
NCC(=O)Nc1ccc(Sc2ccc(S(=O)(=O)C3(C(=O)NO)CCSCC3)cc2)cc1 [Example 118, tetrahydro-N-hydroxy-4-[[4-[4-hydroxyphenylglycine))phenyl] Sulfonyl 2H-thiopyran-4-carboxamide] | 0.8 | 0.3 | 50 | 111 | 2850 | 
CC(C)c1ccc(Oc2ccc(S(=O)(=O)C3(C(=O)NO)CCOCC3)cc2)cc1 [Example 125] | 0.5 | 0.4 | 7 | 43.8 | > 10000 | 
